Assay results taken from PubChem BioAssay (NCI).
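96-well plates; 48 h exposure; 5 concentrations. Endpoints by linear interpolation between flanking doses. Not reached: highest tested concentration assigned. GI50 is the concentration that inhibits growth by half. TGI denotes the concentration required for complete inhibition of growth.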

Key:
Assay in all cases: NCI anticancer screen, dose series, 48 h
[1] = system: OVCAR-5 ovarian
[2] = system: SN12C renal
[3] = system: SNB-19 CNS
[4] = system: ACHN renal
[5] = system: U251 CNS
[6] = system: TK-10 renal
[7] = system: HOP-62 NSCLC
[8] = system: KM12 colon

Row | SMILES | GI50 [1] | TGI [1] | GI50 [2] | TGI [2] | GI50 [3] | TGI [3] | GI50 [4] | TGI [4] | GI50 [5] | TGI [5] | GI50 [6] | TGI [6] | GI50 [7] | TGI [7] | GI50 [8] | TGI [8]
1 | C=CC1CC12C(=O)C1OC2(C)C2C(=O)c3cc4ccccc4cc3C(=O)C12 (stereo not drawn) | 61.2 µM | > 100 µM | 27.8 µM | > 100 µM | 56.7 µM | > 100 µM | 16.9 µM | 42.1 µM | 21.1 µM | 56.7 µM | 31.8 µM | 97.1 µM | 75.9 µM | > 100 µM | 21.8 µM | 58.7 µM
2 | COc1ccc(C(=O)c2cc(OC)c(C)c(OC)c2)cc1OC(=O)CCl | 4.37 µM | > 100 µM | 0.638 µM | 37.1 µM | 0.388 µM | > 100 µM | 0.7 µM | 35.5 µM | 0.415 µM | > 45.3 µM | 17.2 µM | > 100 µM | 0.668 µM | > 100 µM | 0.13 µM | > 44.2 µM
3 | Oc1ccc(Cl)cc1Cc1cc(Cl)cc(Cl)c1O | 11.3 µM | 26.6 µM | 3.7 µM | 21.8 µM | 3.83 µM | 28.9 µM | 3.69 µM | 18 µM | 5.12 µM | 50.9 µM | 7.88 µM | 44.1 µM | 3.68 µM | 21 µM | 4.34 µM | 19.8 µM
4 | Cc1ccc(Cl)cc1Nc1nc(C(F)(F)F)ccc1C(=O)N1CCN(c2ccc(F)cc2)CC1 | 12.1 µM | 30.1 µM | 15 µM | 28.6 µM | 14.9 µM | 30.5 µM | 11.8 µM | 47.7 µM | 12.5 µM | 25.5 µM | 11.2 µM | 26.4 µM | 14.7 µM | 29.8 µM | 11.3 µM | 23.4 µM
5 | O=c1c2ccccc2[se]n1-c1cccnc1 |  | > 100 µM |  | 99.4 µM |  | > 100 µM |  | 88.1 µM |  | 76 µM |  | 50.1 µM |  | 71 µM |  | > 100 µM
6 | COC(=O)/C=C/c1cc(O)c2oc(-c3ccc(O)c(O)c3)c(C(=O)OC)c2c1 | 3.56 µM | 16.5 µM | 0.576 µM | 12.2 µM | 0.356 µM | 14.2 µM | 0.361 µM | 10.4 µM | 0.606 µM | 13.4 µM | 3.89 µM | 16.9 µM | 0.442 µM | 12.7 µM | 0.439 µM | 9.38 µM
7 | Cc1nnc(S(=O)(=O)c2ccc(N=Nc3c(N)nc(N)nc3N)cc2)s1 |  | > 100 µM |  | > 100 µM |  | > 100 µM |  | > 100 µM |  | > 100 µM |  | > 100 µM |  | > 100 µM |  | > 100 µM
8 | Cc1ccc(C(SCC(N)C(=O)O)(c2ccccc2)c2ccc(C)cc2)cc1 (stereo not drawn) | 1.11 µM | 24.4 µM | 2.33 µM | 23.8 µM | 0.476 µM | 39.3 µM | 1.78 µM | 36.3 µM | 0.101 µM | 15.5 µM | 11.2 µM | 30.9 µM | 2 µM | 18.9 µM | 0.219 µM | 12.8 µM
9 | COc1ccc2c(c1)C(C)Cc1c(Cl)ncnc1N2C (stereo not drawn) | 0.643 µM | > 100 µM | 1.29 µM | 23.6 µM | 0.732 µM | > 100 µM | 0.852 µM | > 100 µM | 0.478 µM | > 86.4 µM | 1.06 µM | 18.8 µM | 0.475 µM | 20.1 µM | 0.298 µM | 1.37 µM
10 | CCCCc1c(OC)cc(O)c2c1C(=O)c1[nH]c(C(=O)O)c(O)c(=O)c1C2=O |  | 65.3 µM |  | > 100 µM |  | 15.1 µM |  | > 100 µM |  | 17.6 µM |  | > 100 µM |  | 9.29 µM |  | > 100 µM
11 | O=C(OCc1ccc2cccc(O)c2n1)N1CCN(C(=O)c2cc3cc(F)ccc3[nH]2)CC1 | 1.7 µM | 3.16 µM | 1.21 µM | 2.49 µM | 1.55 µM | 2.92 µM | 0.615 µM | 1.92 µM | 1.41 µM | 2.74 µM | 1.77 µM | 3.16 µM | 1.37 µM | 3.16 µM | 1.61 µM | 3.46 µM
12 | C=C(F)C(=O)N1CCN(c2nc(OC[C@@H]3CCCN3C)nc3c2CCN(c2cccc4cccc(Cl)c24)C3)C[C@@H]1CC#N | 0.485 µM | 2.56 µM | 1.31 µM | 2.83 µM | 1.19 µM | 5.32 µM | 0.962 µM | 2.58 µM | 1.02 µM | 2.21 µM | 1.1 µM | 2.67 µM | < 0.01 µM | 1.48 µM | 1.2 µM | 2.56 µM
